Laboratory results as given in article PMC9127750, “Structure-based design of CDC42 effector interaction inhibitors for the treatment of cancer” (Cell reports, 2022).

Test system: WM3248 melanoma cells, 486 antibodies
Assay: Reverse phase protein arrays (RPPA);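 for Cyclin.B1.R.V RPPA level: ratio of treated to vehicle (0 µM) normalized linear protein signal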;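 for Cyclin.E1.R.V RPPA level: ratio of treated to vehicle (0 µM) normalized linear protein signal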;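 for DDB.1.R.V RPPA level: ratio of treated to vehicle (0 µM) normalized linear protein signal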;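 for RPPA ACC1.R.C: ratio of treated to vehicle (0 µM) normalized linear protein signal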;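 for RPPA ASNS.R.V: ratio of treated to vehicle (0 µM) normalized linear protein signal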;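 for RPPA AceCS1.R.V: ratio of treated to vehicle (0 µM) normalized linear protein signal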;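 for RPPA Akt1.R.V: ratio of treated to vehicle (0 µM) normalized linear protein signal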;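 for RPPA Atg5.R.C: ratio of treated to vehicle (0 µM) normalized linear protein signal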;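 for RPPA Bim.R.V: ratio of treated to vehicle (0 µM) normalized linear protein signal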
Type: cell-based, Human
Details: 20 uM, Average
Description: Pellets were snap frozen in liquid nitrogen and shipped to MD Anderson Cancer Center core RPPA facility for RPPA analysis (Table S5). Three biological replicates for each sample were generated.
Nomenclatures on the RPPA heatmaps: name_of_antibody.species_of_antibody.status_of_antibody. V - antibody validated; C - validation of antibody in progress; Q - antibody nonspecific; E – under evaluation; antibodies raised in M - mouse, G - goat, R - rabbit, or T - rat.

SMILES: CN(C)c1cccc(Nc2cc(-c3ccccc3)nc(C3CCNCC3)n2)c1 [ARN22089, N1,N1-dimethyl-N3-(6-phenyl-2-(piperidin-4-yl)pyrimidin-4-yl)benzene-1,3-diamine]
- Caspase.8.cleaved.R.C RPPA level: 1.025
- Caveolin.1.R.V RPPA level: 0.842
- Cdc6.R.V RPPA level: 0.862
- Cdc42.R.C RPPA level: 1.017
- Chk1.M.C RPPA level: 0.898
- Chk1_pS345.R.C RPPA level: 1.107
- Chk2_pT68.R.C RPPA level: 1.241
- Complex.II.Subunit.M.V RPPA level: 0.945
- Coup.TFII.R.C RPPA level: 0.941
- Cox2.R.C RPPA level: 1.267
- Cox.IV.R.V RPPA level: 0.997
- CtIP.R.V RPPA level: 0.950
- Cyclin.B1.R.V RPPA level: 1.134
- Cyclin.D3.M.V RPPA level: 0.840
- Cyclin.E1.R.V RPPA level: 0.959
- Cyclophilin.F.M.V RPPA level: 0.926
- D.a.Tubulin.R.V RPPA level: 1.029
- DAPK1_pS308.M.C RPPA level: 1.208
- DAPK2.R.C RPPA level: 1.003
- DDB.1.R.V RPPA level: 0.948
- DDR1.R.V RPPA level: 1.002
- DDR1_pY513.R.C RPPA level: 1.125
- DJ1.R.V RPPA level: 0.948
- DM.Histone.H3.R.V RPPA level: 2.021
- DM.K9.Histone.H3.M.V RPPA level: 1.447
- DNA.Ligase.IV.R.C RPPA level: 0.981
- DNA_POLG.R.V RPPA level: 1.025
- RPPA A.Raf.R.V: 1.015
- RPPA A.Raf_pS299.R.C: 1.034
- RPPA ACC1.R.C: 0.857
- RPPA ACLY_pS455.R.V: 1.046
- RPPA ACSL1.R.V: 0.954
- RPPA ACVRL1.R.C: 1.002
- RPPA ADAR1.M.V: 1.149
- RPPA ALKBH5.R.V: 1.061
- RPPA AMPK.a2_pS345.R.V: 1.050
- RPPA AMPKa.R.C: 1.055
- RPPA AMPKa_pT172.R.C: 2.324
- RPPA AR.R.V: 1.058
- RPPA ARID1A.R.C: 1.550
- RPPA ASNS.R.V: 0.982
- RPPA ATM.R.V: 0.922
- RPPA ATM_pS1981.R.V: 1.048
- RPPA ATP5A.M.C: 1.010
- RPPA ATR.R.V: 0.999
- RPPA ATRX.R.C: 1.085
- RPPA ATR_pS428.R.C: 1.058
- RPPA AceCS1.R.V: 0.988
- RPPA Akt1.R.V: 0.884
- RPPA Akt1_pS473.R.V: 1.015
- RPPA Akt2.R.V: 0.884
- RPPA Akt2_pS474.R.C: 1.034
- RPPA Akt.R.V: 0.924
- RPPA Akt_pS473.R.V: 0.837
- RPPA Ambra1_pS52.R.C: 1.060
- RPPA Annexin.I.M.V: 0.985
- RPPA Annexin.VII.M.V: 0.970
- RPPA Atg3.R.V: 0.967
- RPPA Atg4B.R.C: 0.915
- RPPA Atg5.R.C: 0.922
- RPPA Atg7.R.V: 0.846
- RPPA Aurora.A.R.C: 1.195
- RPPA Aurora.ABC_pT288_pT232_pT198.R.C: 0.954
- RPPA Aurora.B.R.V: 1.362
- RPPA Axl.R.V: 0.993
- RPPA B7.H3.R.C: 0.942
- RPPA B7.H4.R.C: 0.993
- RPPA B.Raf.R.C: 0.957
- RPPA BAP1.M.V: 0.964
- RPPA BCL2A1.R.V: 1.025
- RPPA BMK1.Erk5_pT218_Y220.R.V: 0.950
- RPPA BRCA1.M.C: 1.124
- RPPA BRD4.R.V: 1.303
- RPPA Bak.R.C: 1.033
- RPPA Bax.R.V: 1.025
- RPPA Bcl2.R.C: 1.107
- RPPA Bcl.xL.R.V: 1.064
- RPPA Beclin.R.C: 0.977
- RPPA BiP.GRP78.M.C: 0.989
- RPPA Bid.R.C: 0.971
- RPPA Bim.R.V: 1.023
- RPPA DNMT1.R.V: 0.908
- RPPA DRP1.R.V: 0.953
- RPPA DUSP4.R.V: 0.738
- RPPA DUSP6.R.C: 1.449
- RPPA DYRK1B.R.C: 1.005
- RPPA Dvl3.R.V: 1.056
- RPPA E2F1.R.V: 1.239
- RPPA E.Cadherin.R.V: 0.959
- RPPA EGFR.R.V: 1.079
- RPPA EGFR_pY1068.R.C: 0.971
- RPPA EMA.M.C: 0.929
- RPPA ENY2.M.C: 0.931
- RPPA ER.a.R.V: 0.988
- RPPA ER.a_pS118.R.V: 1.453
- RPPA ERCC1.R.C: 1.065
- RPPA ERCC5.R.C: 1.014
- RPPA ERRalpha.R.V: 1.009
- RPPA Elk1_pS383.R.C: 1.100
- RPPA Enolase.1.R.V: 0.939
- RPPA Enolase.2.R.V: 0.991
- RPPA EphA2.R.V: 0.816
- RPPA EphA2_pS897.R.C: 0.726
- RPPA EphA2_pY588.R.C: 1.016
- RPPA Erk5.R.V: 0.946
- RPPA Ets.1.R.V: 1.154
- RPPA FABP5.R.C: 1.025
- RPPA FAK.R.C: 1.003
- RPPA FAK_pY397.R.V: 1.007
- RPPA FANCD2.R.V: 0.924
- RPPA FASN.R.V: 0.845
- RPPA FGF.basic.R.C: 0.992
- RPPA FOXM1.R.V: 1.057
- RPPA FOXO3.R.V: 1.019
- RPPA FRS2.alpha_pY196.R.V: 1.009
- RPPA FTO.R.V: 0.977
- RPPA Fibronectin.R.V: 0.989
- RPPA FoxO3a_pS318_S321.R.C: 1.005
- RPPA G6PD.R.V: 0.983
- RPPA GATA6.R.V: 0.981
- RPPA GCLC.R.C: 0.993
- RPPA GCLM.R.V: 0.999
- RPPA GCN5L2.R.V: 1.002
- RPPA GRB2.R.V: 0.956
- RPPA GSK.3B.R.C: 0.901
- RPPA GSK.3a.b.M.V: 0.957
- RPPA GSK.3a.b_pS21_S9.R.V: 1.052
- RPPA Gli1.R.C: 0.953
- RPPA Gli3.R.C: 1.116
- RPPA Glucocorticoid.Receptor.R.V: 1.130
- RPPA Glutaminase.R.C: 1.024
- RPPA Grp75.R.C: 1.172
- RPPA Gys.R.V: 1.003
- RPPA Gys_pS641.R.V: 0.884
- RPPA H2AX_pS139.R.C: 1.441
- RPPA H2AX_pS140.M.C: 1.148
- RPPA HER2.M.V: 0.983
- RPPA HER2_pY1248.R.V: 1.026
- RPPA HER3.R.V: 0.916
- RPPA HER3_pY1289.R.C: 1.009
- RPPA HES1.R.V: 1.049
- RPPA Heregulin.R.V: 1.013
- RPPA X4E.BP1.R.V: 1.246
- RPPA X4E.BP1_pS65.R.V: 0.859
- RPPA X4E.BP1_pT37_T46.R.V: 0.868
- RPPA X14.3.3.zeta.R.V: 0.922
- RPPA X14.3.3βR.V: 1.078
- RPPA X14.3.3εM.C: 0.929
- RPPA X53BP1.R.V: 1.047
- RPPA b.Actin.R.C: 1.098
- RPPA b.Catenin.R.V: 0.957
- RPPA c.Abl.R.V: 1.129
- RPPA c.Abl_pY412.R.C: 1.034
- RPPA c.IAP2.R.C: 1.063
- RPPA eEF2K.R.V: 1.262
- RPPA eIF4E.R.V: 1.164
- RPPA eIF4E_pS209.R.V: 1.101
- RPPA eIF4G.R.C: 1.116
- RPPA level HLA.DQA1.R.V: 1.019
- RPPA level HLA.DR.DP.DQ.DX.R.C: 1.117
- RPPA level HNRNPK.R.V: 1.028
- RPPA level HSP27.M.C: 0.864
- RPPA level HSP60.R.V: 1.000
